Measured values as given in PubChem BioAssay (NCI).
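48-hour exposure; five concentrations; linearly interpolated endpoints. Abbreviation: GI50, concentration required for 50% inhibition of growth. TGI marks complete inhibition of growth.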

Legend:
Experiment in all cases: inhibition of tumour cell growth, NCI panel, 48 h
SK-MEL-5 melanoma = system: SK-MEL-5 melanoma
U251 CNS = system: U251 CNS
OVCAR-4 ovarian = system: OVCAR-4 ovarian
SK-MEL-2 melanoma = system: SK-MEL-2 melanoma
CAKI-1 renal = system: CAKI-1 renal
HCT-15 colon = system: HCT-15 colon
MOLT-4 leukemia = system: MOLT-4 leukemia
KM12 colon = system: KM12 colon

SMILES | TGI (SK-MEL-5 melanoma) | TGI (U251 CNS) | TGI (OVCAR-4 ovarian) | TGI (SK-MEL-2 melanoma) | TGI (CAKI-1 renal) | TGI (HCT-15 colon) | TGI (MOLT-4 leukemia) | GI50 (KM12 colon) | TGI (KM12 colon) | GI50 (OVCAR-4 ovarian) | GI50 (SK-MEL-2 melanoma) | GI50 (HCT-15 colon) | GI50 (SK-MEL-5 melanoma) | GI50 (U251 CNS) | GI50 (CAKI-1 renal) | GI50 (MOLT-4 leukemia)
O=c1oc2c(Br)c(O)c(Br)cc2c2ccccc12 | 50.2 µM | 87.8 µM | 89.9 µM | 62.7 µM | 31.1 µM | 42.9 µM | 67.1 µM |  |  |  |  |  |  |  |  | 
Nc1ccn(C2OC(CO[P+](=O)OC3C(CO[P+](=O)OC4C(CO[P+](=O)OC5C(CO[P+](=O)OC6C(CO[P+](=O)OC7C(CO[P+](=O)OC8C(CO[P+](=O)OC9C(CO[P+](=O)OC%10C(CO[P+](=O)OC%11C(CO)OC(n%12ccc(N)nc%12=O)C%11(F)F)OC(n%11ccc(N)nc%11=O)C%10(F)F)OC(n%10ccc(N)nc%10=O)C9(F)F)OC(n9ccc(N)nc9=O)C8(F)F)OC(n8ccc(N)nc8=O)C7(F)F)OC(n7ccc(N)nc7=O)C6(F)F)OC(n6ccc(N)nc6=O)C5(F)F)OC(n5ccc(N)nc5=O)C4(F)F)OC(n4ccc(N)nc4=O)C3(F)F)C(O)C2(F)F)c(=O)n1 (centres undefined) | > 100 µM | > 100 µM | > 100 µM |  |  |  |  | 2.03 µM | > 100 µM | > 100 µM | 35 µM | 0.704 µM |  |  |  | 
Cn1c(=O)c(Sc2ccccc2F)cc2cnc(NC3CCOCC3)nc21 | > 25 µM | > 25 µM | > 25 µM | > 25 µM | > 25 µM | > 25 µM | > 25 µM | > 25 µM | > 25 µM | > 25 µM | > 25 µM | > 25 µM | > 25 µM | > 25 µM | > 25 µM | > 25 µM
C=CC[Se]C(=O)c1ccccc1OC(C)=O | 4.09 µM |  | 3.19 µM | 4.33 µM | 5.73 µM | 5.09 µM | 8.43 µM | 0.947 µM | 2.52 µM | 1.68 µM | 2.05 µM | 2.12 µM | 1.94 µM |  | 2.35 µM | 2.9 µM
COC(=O)C1=C2C3=C(C(=O)c4ccccc4C3=O)N(Cc3ccccc3)C2(OC(C)=O)C=CC1=O (centres undefined) | 24.9 µM | 39.4 µM | > 100 µM | > 100 µM | 13.2 µM | 53.9 µM | > 100 µM |  |  | 34.4 µM | 42.5 µM | 14.1 µM | 10.2 µM | 9.86 µM | 1.89 µM | 0.846 µM
Cc1c(NC(=O)CCCl)c(=O)oc2c(C)c3occc(=O)c3cc12 | > 100 µM | > 100 µM | > 100 µM |  | > 100 µM | > 100 µM | > 100 µM |  | > 100 µM |  |  |  |  |  |  | 
NC(=O)c1ncn(C2OC(CO)C(O)C2O)n1 (centres undefined) | > 100 µM |  | > 100 µM | > 100 µM | > 100 µM | > 100 µM | > 100 µM | > 100 µM | > 100 µM | > 100 µM | > 100 µM | 38.4 µM | > 100 µM |  | 57.2 µM | 52.9 µM
O=[n+]1cnn([O-])c2ccccc21 |  | > 100 µM |  | 96.2 µM | 55.1 µM | 35.6 µM | > 100 µM |  | 40.4 µM |  |  |  |  |  |  | 
O=C(Nc1cccc(-n2cc(-c3ccncc3)c(-c3cc(O)cc(Cl)c3)n2)c1)Nc1ccc(Cl)c(Cl)c1 | 3.04 µM | 3.09 µM |  | 4.04 µM | 7.01 µM | 8.04 µM | 5.16 µM | 1.5 µM | 3.69 µM |  | 1.8 µM | 2.1 µM | 1.62 µM | 1.44 µM | 2.21 µM | 1.43 µM
COC(=O)C1=C(C(=O)Nc2cccnc2)C2OC1(C(Cc1ccccc1)Oc1ccccc1)C1OC21 (centres undefined) | 31.3 µM | 22.6 µM | 4.66 µM | 25.9 µM | 4 µM |  | 5.2 µM | 14.6 µM | 33.3 µM | 2.05 µM | 12.9 µM |  | 15.6 µM | 10.7 µM | 1.78 µM | 1.75 µM
Oc1c(Cl)cc(C(c2cc(Cl)c(O)c(Cl)c2)C(c2cc(Cl)c(O)c(Cl)c2)c2cc(Cl)c(O)c(Cl)c2)cc1Cl | 14.8 µM | 10.7 µM | 94.4 µM | 7.33 µM | 13.6 µM | 13.7 µM |  | 2.85 µM | 11.8 µM | 7.11 µM | 2.92 µM | 2.57 µM | 2.89 µM | 3.03 µM | 3.45 µM | 
O=C(/C=C/c1ccccc1O)c1ccccc1 | 23.9 µM | 14.4 µM |  |  | 20.8 µM | 24.7 µM | 14.3 µM | 1.77 µM | 4.16 µM |  |  | 10.6 µM | 11.5 µM | 4.18 µM | 4.26 µM | 2.78 µM
COc1cc(-c2nn(C)nc2-c2cc3ccccc3s2)cc(OC)c1OC | > 100 µM | 30.5 µM |  | 21.2 µM | > 100 µM | > 100 µM | > 100 µM | 0.0549 µM | > 100 µM |  | 0.0597 µM | 0.0587 µM | 0.225 µM | 0.0783 µM | 3.77 µM | 0.333 µM
CCOC(=O)CC(=O)N(c1ccc(OC)cc1)C(C(=O)OC)c1ccccc1 (centres undefined) | > 100 µM |  |  | > 100 µM | > 100 µM | > 100 µM |  |  | > 100 µM |  |  |  |  |  |  | 
